target: T1, human PAD4 (Homo sapiens, UniProt Q9UM07); assay: In vitro PAD4 BAEE biochemical assay; conditions: human PAD4, BAEE substrate; 5 nM PAD4, 2 mM calcium chloride, 3 mM BAEE; geometric mean of multiple experiments
T1 construct: human PAD4 (NM_012387), A2P663, was PCR amplified; His-SUMO (N, cleaved yes); made in house; host or cells: E. coli BL21(DE3)
Summary of the method: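 Tag-free recombinant hPAD4 (5 nM), 2 mM CaCl2, 3 mM BAEE, 50 mM MOPS pH 7.6, 2 mM DTT; 30 min compound preincubation, 2 h reaction, all 25 °C. EDTA quench; ammonia read via o-phthalaldehyde amine coupling, 1 h.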

T1 sequence (Q9UM07 2-663): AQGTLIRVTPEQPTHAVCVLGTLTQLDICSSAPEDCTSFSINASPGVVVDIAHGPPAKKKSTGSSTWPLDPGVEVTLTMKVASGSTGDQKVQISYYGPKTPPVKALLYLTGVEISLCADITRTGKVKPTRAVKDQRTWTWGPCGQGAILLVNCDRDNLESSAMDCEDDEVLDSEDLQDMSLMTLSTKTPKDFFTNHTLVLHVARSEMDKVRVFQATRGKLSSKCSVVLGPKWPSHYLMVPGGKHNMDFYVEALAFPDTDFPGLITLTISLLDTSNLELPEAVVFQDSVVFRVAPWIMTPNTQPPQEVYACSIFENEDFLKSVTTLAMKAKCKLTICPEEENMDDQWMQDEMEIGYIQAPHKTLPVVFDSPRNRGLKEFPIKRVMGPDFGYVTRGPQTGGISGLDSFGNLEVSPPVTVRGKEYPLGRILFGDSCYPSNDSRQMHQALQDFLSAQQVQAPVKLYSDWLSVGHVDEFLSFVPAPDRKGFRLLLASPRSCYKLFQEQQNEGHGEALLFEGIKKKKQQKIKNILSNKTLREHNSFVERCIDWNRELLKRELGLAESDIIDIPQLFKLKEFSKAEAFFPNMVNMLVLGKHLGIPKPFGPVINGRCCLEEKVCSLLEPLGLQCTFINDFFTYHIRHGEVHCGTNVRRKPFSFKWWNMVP

Point of comparison: `COc1cc(C(=O)N2[C@H]3CC[C@@H]2[C@H](N)C3)cc2nc(-c3cc4ccc([C@@H](C)NC(=O)[C@H](C)O)nc4n3CC3CC3)c(C)n12` [Example 94, (2~{S})-~{N}-[(1~{R})-1-[2-[7-[(1~{R},2~{R},4~{S})-2-amino-7-azabicyclo [2.2.1]heptane-7-carbonyl]-5-methoxy-3-methylimidazo [1,2-a]pyridin-2-yl]-1-(cyclopropylmethyl)pyrrolo [2,3-b]pyridin-6-yl]ethyl]-2-hydroxypropanamide], IC50 38 nM. Against it:
- COc1cc(C(=O)N2CC[C@@H]3CCNC[C@@H]32)cc2nc(-c3cc4ccc(N(C(F)F)S(C)(=O)=O)nc4n3CC3CC3)c(C)n12 (single isomer, unassigned) [Example 417] — 190-fold higher, 7180 nM
- COc1cc(C(=O)N2[C@H]3CC[C@@H]2[C@H](N)C3)cc2nc(-c3cc4ccc([C@@H](C)NC(=O)CCS(C)(=O)=O)nc4n3CC3CC3)c(C)n12 [Example 153, ~{N}-[(1~{R})-1-[2-[7-[(1~{R},2~{R},4~{S})-2-amino-7-azabicyclo[2.2.1]heptane-7-carbonyl]-5-methoxy-3-methylimidazo [1,2-a]pyridin-2-yl]-1-(cyclopropylmethyl)pyrrolo [2,3-b]pyridin-6-yl]ethyl]-3-methylsulfonylpropanamide] — 1.8-fold higher, 68.7 nM
- COc1cc(C(=O)N2[C@H]3CC[C@@H]2[C@H](N)C3)cc2nc(-c3cc4ccc([C@@H](C)NC(C)=O)nc4n3CC3CC3)c(C)n12 [Example 179, ~{N}-[(1~{R})-1-[2-[7-[(1~{R},2~{R},4~{S})-2-amino-7-azabicyclo[2.2.1]heptane-7-carbonyl]-5-methoxy-3-methylimidazo [1,2-a]pyridin-2-yl]-1-(cyclopropylmethyl)pyrrolo [2,3-b]pyridin-6-yl]ethyl] acetamide] — 2.2-fold higher, 85 nM
- Cc1cc(C(=O)N2CCC[C@@H](N)C2)cc2nc(-c3cc4ccc(N(C(F)F)S(C)(=O)=O)nc4n3CC3CC3)c(C)n12 [Example 426, ~{N}-[2-[7-[(3~{R})-3-aminopiperidine-1-carbonyl]-3,5-dimethylimidazo [1,2-a]pyridin-2-yl]-1-(cyclopropylmethyl)pyrrolo [2,3-b]pyridin-6-yl]-~{N}-(difluoromethyl) methanesulfonamide] — 3.3-fold higher, 125 nM
- COc1cc(C(=O)N2[C@H]3CC[C@@H]2[C@H](N)C3)cc2nc(-c3cc4ccc([C@@H](C)NC(=O)C5(C)COC5)nc4n3CC3CC3)c(C)n12 [Example 166, ~{N}-[(1~{R})-1-[2-[7-[(1~{R},2~{R},4~{S})-2-amino-7-azabicyclo[2.2.1]heptane-7-carbonyl]-5-methoxy-3-methylimidazo [1,2-a]pyridin-2-yl]-1-(cyclopropylmethyl)pyrrolo [2,3-b]pyridin-6-yl]ethyl]-3-methyloxetane-3-carboxamide] — within 1.5-fold, 56 nM
- COc1cc(C(=O)N2[C@H]3CC[C@@H]2[C@H](N)C3)cc2nc(-c3cc4ccc([C@@H](C)NC(=O)C(C)(C)O)nc4n3CC3CC3)c(C)n12 [Example 126, ~{N}-[(1~{R})-1-[2-[7-[(1~{R},2~{R},4~{S})-2-amino-7-azabicyclo[2.2.1]heptane-7-carbonyl]-5-methoxy-3-methylimidazo [1,2-a]pyridin-2-yl]-1-(cyclopropylmethyl)pyrrolo [2,3-b]pyridin-6-yl]ethyl]-2-hydroxy-2-methylpropanamide] — within 1.5-fold, 45.9 nM
- COc1cc(C(=O)N2C[C@H]3CC[C@@H]2[C@@H]3N)cc2nc(-c3cc4ccc([C@@H](C)NC(=O)[C@H]5CC5(F)F)nc4n3CC3CC3)c(C)n12 [Example 100, (R)-N-((R)-1-(2-(7-((1R,4R,7R)-7-amino-2-azabicyclo[2.2.1]heptane-2-carbonyl)-5-methoxy-3-methylimidazo[1,2-a]pyridin-2-yl)-1-(cyclopropylmethyl)-1H-pyrrolo[2,3-b]pyridin-6-yl)ethyl)-2,2-difluorocyclopropane-1-carboxamide] — 2-fold higher, 76.7 nM

Source: US12240862B2, “Inhibitors of peptidylarginine deiminases” (Gilead Sciences, Inc., priority 2020, dated 2025)
